Laboratory results reported in article PMC7572458, “Multiple mutations in the EPSPS and ALS genes of Amaranthus hybridus underlie resistance to glyphosate and ALS inhibitors” (Scientific Reports, 2020).

Assays:
[1] = molecular target: T1, ALS (acetolactate synthase) (Amaranthus hybridus, UniProt A0A346FHL9); assay: acetoin colorimetric (creatine/naphthol, […] nm), crude leaf extract; type: biochemical; settings: read-out: I50 (μM) ± SE
T1 construct: native, crude seedling leaf extract supernatant (15,000 g), not purified

[2] = test system: T2, ALS (acetolactate synthase); assay: as above; type: biochemical, Amaranthus hybridus; settings: MR2 population, zygosity not given; pyruvate, MgCl2, FAD, pH 7.5, 37 °C, 1 h; stated gain; read-out: I50 (μM) ± SE
T2 construct: native, crude seedling leaf extract supernatant (15,000 g), not purified

T1 sequence (A0A346FHL9 81-669 limits assumed): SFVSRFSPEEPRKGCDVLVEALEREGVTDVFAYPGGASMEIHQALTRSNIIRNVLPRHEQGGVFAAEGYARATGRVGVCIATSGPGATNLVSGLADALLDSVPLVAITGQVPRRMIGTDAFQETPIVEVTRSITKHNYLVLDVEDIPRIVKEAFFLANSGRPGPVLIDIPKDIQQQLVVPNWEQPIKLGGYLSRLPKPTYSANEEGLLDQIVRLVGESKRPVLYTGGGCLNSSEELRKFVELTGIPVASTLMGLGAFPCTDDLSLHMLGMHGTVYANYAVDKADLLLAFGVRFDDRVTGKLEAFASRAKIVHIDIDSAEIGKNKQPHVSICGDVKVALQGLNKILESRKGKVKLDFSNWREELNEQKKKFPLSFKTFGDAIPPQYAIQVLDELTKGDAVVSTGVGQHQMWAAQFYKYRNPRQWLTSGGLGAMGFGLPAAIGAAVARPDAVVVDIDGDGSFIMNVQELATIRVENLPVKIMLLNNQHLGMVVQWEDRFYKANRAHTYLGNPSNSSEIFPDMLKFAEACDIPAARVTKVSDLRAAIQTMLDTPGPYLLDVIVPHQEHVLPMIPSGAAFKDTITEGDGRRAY

| SMILES | IC50 [1] | IC50 [2] |
| --- | --- | --- |
| COc1cc(OC)nc(Oc2cccc(Oc3nc(OC)cc(OC)n3)c2C(=O)O)n1 [byspiribac] | 45.9 ± 8 µM | 2730 ± 80 µM |
| COc1ncc(F)c2nc(S(=O)(=O)Nc3c(F)cccc3F)nn12 [florasulam] | 17.4 ± 1.4 µM | 56.5 ± 9 µM |
| COc1nn(C(=O)NS(=O)(=O)c2ccccc2OC(F)(F)F)c(=O)n1C [flucarbazone] | 1 ± 0.1 µM | 145 ± 11.5 µM |
| COCc1cnc(C2=NC(C)(C(C)C)C(=O)N2)c(C(=O)O)c1 (stereo not shown) [imazamox] | 117 ± 9.1 µM | 3170 ± 112 µM |
| COC(=O)c1ccccc1S(=O)(=O)NC(=O)N(C)c1nc(C)nc(OC)n1 [tribenuron-methyl] | 47.5 ± 6.3 µM | 273 ± 26 µM |
